Test system: hippocampal tubulin dimers and tau-associated, tau-nonassociated (MAP2/STOP) and cold-stable microtubules
Assay: 2H label incorporation into hippocampal tubulin dimers and microtubule fractions after ICVC infusion (2H2O labeling, GC/MS)
Assay type: in vivo, mouse
Conditions: for label incorporation into new MAP2/STOP-MTs: vs water
Protocol: In (A) and (B), mice received ICVC infusions of 6 μl water alone or containing 0.48 nmol glutamate (80 μM in the infusate), or glutamate plus 0.66 pmol Rp-cAMP (110 nM in the infusate). Animals were then labeled with ^2H2O for 8 hours (A) or 24 hours (B). At sacrifice, the hippocampal post-nuclear supernatant was fractionated as show in FIG. 5A; a separate aliquot was used for isolation of cold stable (CS) MTs (FIG. 5D). Glutamate injection stimulated label incorporation into new MAP2/STOP-MTs at 8 and 24 hours, and CS MTs at 24 hours; both were blocked by Rp-cAMP. In order to correct the effects of pharmacologic intervention on MT dynamics for the confounding changes in tubulin synthesis, the numbers above each bar express ^2H label incorporation into MT as a percentage of ^2H labeling in the corresponding tubulin dimer fractions. (C) Dose dependence of glutamate effects. ^2H2O labeling was initiated at time zero, 6 μl ICVC infusions with the indicated concentrations of glutamate were performed at 24 hours, and labeling was continued until sacrifice at 48 hours (24 hours post glutamate infusion). Hippocampal MTs were fractionated into tau-associated, MAP2-associated, and non-associated (STOP-associated) MT fractions, as in FIG. 5A. In all experiments, bars represent % new tubulin (mean±SD, n=3).
Tubulin was purified using minor modifications of protocols described previously (Fanara, P., Oback, B., Ashman, K., Podtelejnikov, A., Brandt, R. Identification of MINUS, a small polypeptide that functions as a microtubule nucleation suppressor. EMBO J. 18, 565-577 (1999); Fanara, P. et al. In vivo measurement of microtubule dynamics using stable isotope labeling with heavy water. Effect of taxanes. J. Biol. Chem. 279, 49940-49947 (2004). Briefly, cultured neurons were gently scraped off culture plates, washed in phosphate-buffered saline (PBS), and homogenized in microtubule-stabilizing buffer. For purification ex vivo, mice were anesthetized with isoflurane and euthanized by cervical dislocation. Brains were rapidly removed and washed in microtubule-stabilizing buffer (MSB); hippocampi were dissected and gently homogenized in MSB. To separate cytosolic tubulin dimers from microtubule polymers, post-nuclear supernatants were centrifuged at 190,000×g at 20° C. for 35 min. The supernatant or non-microtubule fraction (containing the soluble dimeric tubulin) was separated from the pellet or microtubule fraction (containing polymeric tubulin), quick-frozen and stored at −20° C. Microtubule pellets were further fractionated by sequential immunoaffinity chromatography steps (FIG. 3). In order to isolate tau-associated microtubules, TAU5 antibody was covalently coupled to epoxy-activated Sepharose beads (Amersham Pharmacia Biotech) at a concentration of 0.25 mg/ml. Approximately 0.2 mg of the microtubule pellet was incubated with TAU-5 beads in 0.5 ml MSB for 1 hour at room temperature. Unbound material was removed, the beads were washed three times in 0.5 ml of MSB, and bound material was eluted in 0.5 ml MSB containing 1M NaCl. In some experiments, MAP2-associated microtubules were captured from the TAU5-unbound material by immunoaffinity chromatography on epoxy-activated Sepharose beads coupled to MAP2 antibody (0.5 mg antibody per ml beads) using the same protocol. The relative abundance of tubulin in each preparation (Tubulin dimers and TAU5-bound, MAP2-bound, and unbound microtubule fractions) was quantified by Western blot, and tubulin from these fractions was further purified by ion exchange and size exclusion chromatography, as previously described (Fanara, P. et al. In vivo measurement of microtubule dynamics using stable isotope labeling with heavy water. Effect of taxanes. J. Biol. Chem. 279, 49940-49947 (2004)). […]

[1] = dose-dependence experiment, 24 hours post stimulation

N[C@@H](CCC(=O)[O-])C(=O)[O-].[K+].[K+] [glutamate, potassium L-glutamate]
label incorporation into new MAP2/STOP-MTs (0.48 nmol glutamate ICVC, 2H2O labeling 8 hours): stimulated
label incorporation into new MAP2/STOP-MTs (0.48 nmol glutamate ICVC, 2H2O labeling 24 hours): stimulated
fractional synthesis of tubulin dimers (0.48 nmol glutamate ICVC, 8 and 24 hours labeling, vs controls): somewhat enhanced
tau-nonassociated microtubules exchanged with free tubulin (0.48 nmol glutamate ICVC, 8 hours): ca. 80%
labeling of cold-stable (axonal shaft) microtubules (0.48 nmol glutamate ICVC, 8 hours, vs controls): indistinguishable from controls
tau-nonassociated microtubules exchanged with free tubulin (0.48 nmol glutamate ICVC, 24 hours): ca. 80%
cold-stable microtubules equilibrated with free tubulin (0.48 nmol glutamate ICVC, 24 hours, MT label as percentage of tubulin dimer label): about 40%
label incorporation into cold stable (CS) MTs (0.48 nmol glutamate ICVC, 24 hours, vs controls): increased
label incorporation into cold stable (CS) MTs (0.48 nmol glutamate ICVC, 24 hours, vs controls, listed as Glutamate): stimulated
exchange of tau-associated microtubules with tubulin dimers (8 hours after stimulation with glutamate): highly exchanged
dynamics of tau-associated microtubules (24 hours after stimulation with glutamate, vs controls): less dynamic than controls
fractional tubulin synthesis (dose-dependence experiment: 2H2O started 24 hours before varying amounts of glutamate, sacrifice 24 hours post infusion): at most slight effects
decreased label incorporation in tau-associated microtubules [1]: glutamate-dose dependent
increased tubulin incorporation into dendritic and axonal shaft microtubules [1]: glutamate-dose dependent
